The text below walks through data of a melting point compilation (Tetko et al.; mined from patent text by program, amines drawn as free bases though some values may be those of a salt).

Structures are written as SMILES.

Turning to `COc1ccc(-c2nc(-c3ccc(OCCO)cc3O)nc(-c3ccc(OCCO)cc3OCCO)n2)cc1`, the melting point (commonly the temperature, or range, at which the solid turns liquid) worked out at 172 °C.

As for `O=C(CC(c1ccccc1)(c1ccccc1)c1ccccc1)N1CC2=C(C1)c1cccc3cccc2c13`, the melting point lay within 159 to 168 °C.

For `CC(=O)N1CCC(C(=O)c2ccc(N3CCCCC3)cc2)CC1`, the melting point was in the range of 122 to 125 °C.

For the compound `OC1CSC(Oc2cncc(-c3ncccn3)c2)C(O)C1O` (stereo not given), the melting point was found to be 201 °C.

On to `O=C(Nc1ccc(S(=O)(=O)C(F)(F)F)cc1Cl)c1c(O)c(C23CC4CC(CC(C4)C2)C3)cc2c1CCC2`, for which the melting point lay in the range of 218 to 219 °C.

`COc1ccc2cc(C=NCc3ccccc3)ccc2c1`: the melting point was 115 to 117 °C.

On to `CC(C)(C)c1cc(CCc2ccccc2NC(=O)NCCCc2ccccc2)cc(C(C)(C)C)c1O`, for which the melting point is 161 to 162 °C.

The compound `O=C1c2ccccc2S(=O)(=O)c2c1cccc2-c1nnn[nH]1` had a melting point of 271 °C.

Regarding `COc1cccc(CNC(=O)c2cc3c(=O)n(CCOc4ccc(Br)cc4)c(=O)n(C)c3s2)c1`, the melting point was in the range of 165 to 167 °C.

Turning to `Oc1ccccc1Oc1ccc(-c2ccsc2)cc1O`, the melting point is 114 to 116 °C.

With `CN(C)c1cccc(OCC(=O)c2cccc(Cl)c2)c1`, the melting point was in the range of 101 to 103 °C.

As for `CC(=O)OCC1OC(n2ccc3c(C)cccc32)C(OC(C)=O)C(OC(C)=O)C1OC(C)=O` (stereo not given), the melting point was in the range of 156 to 157 °C.

`O=C1c2cc3ccc4c(c3c(-c3ccc5c(c3)OCO5)c2C(=O)N1CCCO)OCO4`: the melting point lay in the range of 150 to 152 °C.

In turn, `CC(C)(C)C(NC(=O)c1ccc(I)cc1)Nc1c(Nc2cccnc2)c(=O)c1=O` (stereo not given) had a melting point of 256 to 257 °C.

`C=CC(=O)OCCCCCCC[C@H]1CC[C@H](c2cccc(F)c2F)CC1` gave a melting point of 34 to 35.3 °C.

The compound `CN1CCC(c2c[nH]c3ccc(C(=O)c4ccc(N(C)C)cc4)cc23)CC1` had a melting point of 103 to 104 °C.

Turning to `COc1ccc2c3c1c(C)c(-c1ccc(O)cc1)n3CC(CCO)O2` (stereo not given), the melting point amounted to 190 °C.

Turning to `Cc1cc(Br)n2ccnc2c1`, the melting point fell in the range of 53 to 54 °C.

As for `CCCCCCCCCCc1nc(N(C)C)nc(C)c1O`, the melting point fell in the range of 71 to 72 °C.

In turn, `ONCC1(c2ccc(OCc3ccc4ccccc4n3)cc2)CCCC1` registered a melting point of 116 to 117 °C.

As for `Cn1cc2c(C=O)c(Br)ccc2n1`, the melting point was 137 to 140 °C.

As for `Cc1oc(-c2ccccc2)nc1CCOc1cccc(-c2cccc(OC3(C(=O)O)CCC3)c2)c1`, the melting point was found to be 127 °C.

In the case of `N#Cc1cnc2cc(Br)ccc2c1Nc1ccc(Cc2ccccc2)cc1`, the melting point lay in the range of 195 to 197 °C.

Compound `CCOC(=O)c1c(Sc2ccccc2)cc(C(F)(F)F)nc1C(F)(F)F` returned a melting point of 58 to 61 °C.

For `CNC(=O)NS(=O)(=O)c1cc2c(cc1OC)OCC(NC(=O)c1cc(F)ccc1OC)C2` (stereo not given), the melting point is 260 °C.

As to `Cn1nnnc1-c1cccc(Oc2cccc(C(F)(F)F)c2)n1`, the melting point was 92 to 94 °C.

`N#Cc1c(S(=O)(=O)C(F)(F)C(F)Cl)[nH]c2ccccc12` (stereo not given) had a melting point of 164 to 167 °C.

The compound `C=C[C@@H](C[C@H](O)[C@H](CC1CCCCC1)NC(=O)[C@H](Cc1c[nH]cn1)NC(=O)[C@@H](CC(=O)N1CCC(C(=O)O)CC1)Cc1ccccc1)C(C)C` had a melting point of 169 °C.

Compound `Cc1nnc2n1-c1ccc([N+](=O)[O-])cc1C(c1ccccc1Cl)=CC2` gave a melting point of 225 to 227 °C.

With `NS(=O)(=O)c1cccc(-c2ccco2)c1`, the melting point lay in the range of 197 to 198 °C.

With `Cc1nccn1CCCCc1ccc(OCc2coc(/C=C/c3ccccc3)n2)cc1`, the melting point lay within 122 to 123 °C.

For the compound `Clc1ccccc1-c1nc2occn2c1-c1ccnc(N[C@H]2CN3CCC2CC3)n1`, the melting point is 132 to 134 °C.

`COc1cc(C)c(C=CC(C)=CC=CC(C)=CC(=O)OC2C(OC)OC(CO)C(O)C2O)c(C)c1C` (stereo not given) had a melting point of 197 °C.

On to `Cc1c(Cc2ccc(C(C)C)cc2)c2c(c(C)c1NC(=O)CC(C)(C)C)C(c1ccccc1)CO2` (stereo not given), for which the melting point fell in the range of 137 to 141 °C.

Turning to `CNC(=O)C(Cc1ccc(OC)cc1)NC(=O)C(CC(C)C)C(S)CC(=O)OC` (stereo not given), the melting point fell in the range of 80 to 86 °C.

Compound `CCC(CC)N(O)C(=O)NC(C)(C)c1cccc(C(C)(C)NC(=O)N(O)C(CC)CC)c1` showed a melting point of 170 to 172 °C.

In the case of `N#Cc1ccc(C(=O)N2CCN(C(=O)[C@@H]3CCCN3S(=O)(=O)c3ccc(Cl)c(CBr)c3Cl)CC2)cc1`, the melting point turned out to be 115 °C.

As to `Cc1cc(-c2cc(C(F)(F)F)n3ncc(-c4nc(-c5cccc(S(N)(=O)=O)c5)no4)c3n2)ccc1C(F)(F)F`, the melting point stood at 270 °C.

Take `O=C(c1cccs1)c1cnn2c(-c3cccc(NC(=S)Nc4cccc(-c5ccnc6c(C(=O)c7cccs7)cnn56)c4)c3)ccnc12`: the melting point was in the range of 151 to 153 °C.

`Cc1cc(S(N)(=O)=O)ccc1NC(=O)Cc1ccc(Oc2cc(Cl)cc(C#N)c2)c(Br)c1` registered a melting point of 215 to 216 °C.

`COc1cccc(C(=O)NC2(C(=O)N(C)OC)CC2)c1C` gave a melting point of 173 to 175 °C.

The compound `COc1cc2c(cc1OC)C(=CO)C(=O)N2` yielded a melting point of 216 to 217 °C.

`Cc1c(C)c(N2Cc3ccccc3C2)c(C)c2c1OC(C)(C)C2c1ccc(C(C)C)cc1` (stereo not given) showed a melting point of 113 to 114 °C.

In turn, `CC(O)Cc1cc2c(cc1C(=NNc1ccc(Cl)nn1)c1ccc([N+](=O)[O-])cc1)OCO2` (stereo not given) gave a melting point of 135 to 137 °C.

As for `CC(=O)Nc1ccc(S(=O)(=O)CC(=O)C23CC4CC(CC(C4)C2)C3)cc1`, the melting point lay within 151 to 152 °C.

Regarding `Cc1cc(NCc2ccccc2)nc(-n2nc(C)cc2C)n1`, the melting point was in the range of 136 to 137 °C.

Consider `Cc1cccc2oc(Nc3ccc(CC(=O)O)cc3)nc12`, for which the melting point was 337 to 339 °C.

`NS(=O)(=O)c1cccc2nonc12`: the melting point lay within 157 to 159 °C.

The compound `Fc1cccc(F)c1C1=NC(c2ccc(OCc3ccc4ccccc4c3)cc2)CO1` (stereo not given) returned a melting point of 148 to 150 °C.

`O=C(N[C@H]1CC[C@H](CCN2CCN(c3nccc4c3OCC4)CC2)CC1)c1ccc(Cl)cc1` registered a melting point of 252 °C.

As to `CCCCOCCOc1ccc(-c2ccc(N(C)Cc3cnn(C)c3)c(C=C(C)C(=O)O)c2)cc1`, the melting point came to 140 °C.

Take `NC(=O)c1ccc(Br)c(OC(F)F)c1Br`: the melting point was found to be 186 °C.

In turn, `CCOC(=O)C(=CNC1CC1)C(=O)c1c(F)cc(Cl)c(F)c1Cl` yielded a melting point of 106 to 107 °C.

`NC(=O)c1ccc(-c2ccc3nnn(Cc4ccc5ncccc5c4)c3n2)cc1C(F)(F)F` showed a melting point of 230 to 232 °C.

As for `O=C(O)CCn1[nH]c(=O)c2ccccc2c1=O`, the melting point was in the range of 201 to 203 °C.

`CC(SSc1ccccc1C(=O)Nc1ccc(S(N)(=O)=O)cc1)C(=O)NCC(=O)O` (stereo not given) registered a melting point of 254 to 256 °C.

With `C=CCOc1ccc(C(=O)Oc2ccc(O[Si](C)(C)C)cc2)cc1`, the melting point was found to be 87 °C.

Turning to `CC(C)CCc1ccc(C(=S)CC#N)cc1`, the melting point was 62 to 63 °C.

Turning to `COc1ccc(C(=O)c2ccccc2C=O)cc1`, the melting point is 90 to 91 °C.

For `COc1cc(C=Cc2c(CO)ccc(OC)c2OC)cc(OC)c1OC`, the melting point is 120 to 121 °C.
